PMC4128814, “A High Throughput Screen Identifies Potent and Selective Inhibitors to Human Epithelial 15-Lipoxygenase-2” (PLoS ONE, 2014)

Columns and labels:
15-LOX-1 = target: T1, 15-LOX-1 (Homo sapiens, UniProt P16050); assay: Lipoxygenase UV-Vis assay, 15-LOX-1; type: biochemical; settings: estimated from one inhibitor point at 20 µM; 10 µM AA
T1 construct: His6 (N); made in house
T1 sequence (P16050 1-662): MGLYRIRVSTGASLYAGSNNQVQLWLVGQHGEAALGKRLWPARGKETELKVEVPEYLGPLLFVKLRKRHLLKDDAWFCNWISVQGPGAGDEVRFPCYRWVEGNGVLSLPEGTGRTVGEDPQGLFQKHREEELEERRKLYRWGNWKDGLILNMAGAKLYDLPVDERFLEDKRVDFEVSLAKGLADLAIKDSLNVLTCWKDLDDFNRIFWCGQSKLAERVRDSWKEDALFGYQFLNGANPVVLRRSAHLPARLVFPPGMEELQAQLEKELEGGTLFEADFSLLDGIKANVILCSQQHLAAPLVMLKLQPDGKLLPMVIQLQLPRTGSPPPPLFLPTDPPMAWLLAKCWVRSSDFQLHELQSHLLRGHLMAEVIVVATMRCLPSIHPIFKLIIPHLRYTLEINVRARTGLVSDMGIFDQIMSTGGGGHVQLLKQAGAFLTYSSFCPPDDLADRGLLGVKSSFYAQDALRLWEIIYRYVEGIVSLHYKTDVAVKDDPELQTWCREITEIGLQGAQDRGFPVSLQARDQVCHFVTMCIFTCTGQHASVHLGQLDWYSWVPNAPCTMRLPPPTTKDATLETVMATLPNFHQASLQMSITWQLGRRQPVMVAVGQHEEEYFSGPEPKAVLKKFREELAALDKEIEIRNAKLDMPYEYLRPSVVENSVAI
Source text: Different lipoxygenases, such as 15-LOX-1, 15-LOX-2, and 12-LOX were expressed as N-terminal His6-tagged proteins and were purified via immobilized metal affinity chromatography (IMAC) using an Ni-NTA resin for 15-LOX-1 [12], and 15-LOX-2 [17], and a Ni-IDA resin for 12-LOX [18]. […] Human leukocyte 5-lipoxygenase (5-LOX) was expressed as a non-tagged protein and used as a crude ammonium sulfate protein fraction, as published previously, [20].
The inhibitor compounds were screened initially using one concentration point at 25 µM on a Perkin-Elmer Lambda 40 UV/Vis spectrophotometer. […] The reactions were initiated by adding 200 nM 15-LOX-2, 30 nM 12-LOX, 40 nM 15-LOX-1, or approximately 100–300 nM (5–10 µL) of 5-LOX crude extract to a cuvette with 2 mL reaction buffer, constantly stirred using a magnetic stir bar at room temperature (22°C). Reaction buffers used for various LOX isozymes were as follows: 25 mM HEPES (pH 7.3), 0.3 mM CaCl2, 0.1 mM EDTA, 0.2 mM ATP, 0.01% Triton X-100, 10 µM AA for the crude, ammonium sulfate precipitated 5-LOX; and 25 mM HEPES (pH 7.5), 0.01% Triton X-100, 10 µM AA for 15-LOX-2, 15-LOX-1, and 12-LOX. […] The data were then plotted against inhibitor concentration, followed by a hyperbolic saturation curve fit (assuming total enzyme concentration [E]≪IC50). […] All inhibitors were stored at −20°C in DMSO. […]

12-LOX = target: T2, 12-LOX (Homo sapiens, UniProt P18054); assay: Lipoxygenase UV-Vis assay, 12-LOX; type: biochemical; settings: estimated from one inhibitor point at 20 µM; 10 µM AA
T2 construct: His6 (N); made in house
T2 sequence (P18054 1-663): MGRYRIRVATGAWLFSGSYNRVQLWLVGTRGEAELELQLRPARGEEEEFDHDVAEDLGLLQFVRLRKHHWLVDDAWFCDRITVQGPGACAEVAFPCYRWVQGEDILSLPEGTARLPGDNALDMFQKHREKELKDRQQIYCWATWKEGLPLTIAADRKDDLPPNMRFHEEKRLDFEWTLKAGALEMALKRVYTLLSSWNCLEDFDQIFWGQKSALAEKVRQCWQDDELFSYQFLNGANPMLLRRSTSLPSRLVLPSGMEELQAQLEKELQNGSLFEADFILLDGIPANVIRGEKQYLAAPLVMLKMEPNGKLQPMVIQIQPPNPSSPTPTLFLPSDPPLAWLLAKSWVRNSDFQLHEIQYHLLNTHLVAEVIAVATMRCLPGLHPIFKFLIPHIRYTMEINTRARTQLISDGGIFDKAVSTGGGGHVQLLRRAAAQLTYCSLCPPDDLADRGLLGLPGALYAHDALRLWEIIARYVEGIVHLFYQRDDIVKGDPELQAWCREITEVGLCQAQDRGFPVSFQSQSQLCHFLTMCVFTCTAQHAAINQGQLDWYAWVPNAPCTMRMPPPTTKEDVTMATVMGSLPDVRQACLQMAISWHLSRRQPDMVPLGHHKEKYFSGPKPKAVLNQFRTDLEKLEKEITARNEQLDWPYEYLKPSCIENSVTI
Method: Human leukocyte 5-lipoxygenase (5-LOX) was expressed as a non-tagged protein and used as a crude ammonium sulfate protein fraction, as published previously, [20].
The reactions were initiated by adding 200 nM 15-LOX-2, 30 nM 12-LOX, 40 nM 15-LOX-1, or approximately 100–300 nM (5–10 µL) of 5-LOX crude extract to a cuvette with 2 mL reaction buffer, constantly stirred using a magnetic stir bar at room temperature (22°C). Reaction buffers used for various LOX isozymes were as follows: 25 mM HEPES (pH 7.3), 0.3 mM CaCl2, 0.1 mM EDTA, 0.2 mM ATP, 0.01% Triton X-100, 10 µM AA for the crude, ammonium sulfate precipitated 5-LOX; and 25 mM HEPES (pH 7.5), 0.01% Triton X-100, 10 µM AA for 15-LOX-2, 15-LOX-1, and 12-LOX. The substrate concentration was quantitatively determined by allowing the enzymatic reaction to go to completion in the presence of 15-LOX-2. […] The data were then plotted against inhibitor concentration, followed by a hyperbolic saturation curve fit (assuming total enzyme concentration [E]≪IC50). […] All inhibitors were stored at −20°C in DMSO. NDGA was utilized as positive control for the selectivity assays for the various LOX isozymes.

Row | IC50 (15-LOX-1) [µM] | IC50 (12-LOX) [µM] | Compound
1 | > 100 | > 100 | Clc1ccc(-c2nnc(C3CCCCC3)o2)cc1 [MLS000545091]
2 | > 50 | > 100 | Cc1ccc(CSc2ncn(-c3ccccc3)n2)cc1 [MLS000536924]
